{"source": "patent US8999959B2", "about": "“Drug for treating liver lesions caused by the action of chemical or biological agents” (priority 2010, dated 2015)", "key": {"[1]": {"tested_on": "toxic hepatitis caused by carbon tetrachloride (CCl4)", "test": "Treatment of acute toxic hepatitis (CCl4) in rats by parenteral (intravenous) administration", "type": "in vivo", "parameters": "Total bilirubin, serum: unit not given here", "procedure": "Treatment of toxic hepatitis by means of parenteral administration of the inventive substance. Acute toxic hepatitis was induced in rats by means of intragastric administration of 50% solution of carbon tetrachloride (CCl4) in olive oil in the amount of 1 ml/kg during 6 days. After 10 days the presence of toxic hepatitis was confirmed by morphological image of liver in all experimental animals. Starting from that day, for 10 days the preparations were administered to the experimental animals by way of treatment, once every 24 hours.\nEssentiale was used as the preparation for comparison, which was administered in ampoules in the amount of 1 ml/100 g intravenously, slowly, into the caudal vein. The inventive substance was also administered intravenously in varying amounts in order to refine the treatment procedure. The effectiveness of treatment was evaluated on the basis of clinical performance, body weight dynamics, relative liver mass, the contents of bilirubin, transaminases, phosphatases, ceruloplasmin, total protein, blood serum lipids, the contents of glycogen, glutathione, SH-groups, stress tests (hexenal test, bromsulphalein test) and the histological pattern of liver.\nWeight dynamics of the rats were determined by means of scales VLR-500. Liver of the animals was weighted using electronic scales 1602 MP by “Sartorius”. The contents of reduced glutathione in liver and the content of sulfhydryl groups in blood serum was evaluated by amperometric titration according to Rubinnaya N. S. (Stalnaya I.D., Garishvili T. G Modern methods in biochemistry. Moscow, Meditsina, 1977, pp. 66-68), the contents of glycogen—by the Samodi method (Stalnaya I.D., Garishvili T. G Modern methods in biochemistry. Moscow, Meditsina, 1977, pp. 66-68). The antitoxic function of liver was evaluated by the duration of hexenal sleep (70 mg per 1 kg of body weight), and the excretory function of liver was assessed by means of bromsulphalein test.\nBlood for biochemical tests was obtained by means of paracentesis of the caudal vein of rats.\nThe activity of ALT, AST, ALP, ACP, LDH, thymol test, the contents of total protein and lipids, cholesterol, blood serum bilirubin were assessed by means of sets Bio-Lat-Test manufactured by a Czech company “Lachema”, the contents of ceruloplasmin were assessed according to Babenko (Laboratory research methods in clinical practice. Reference book, under the editorship of V. V. Menshikov. Moscow, Russia—Meditsina, 1987, p. 365). The animals were killed by decapitation, subjected to anatomicopathological autopsy and histological study. The experimental and reference rats were killed by means of decapitation. The material was fixed in 10-15% formaldehyde and embedded in paraffin. Paraffin slices were stained by means of hematoxylin and eosin. Fixed frozen slices were stained for fat by means of Sudan III.\nStatistical processing of the experiments' results was done according to Student's T-distribution and F-distribution.\nThe effectiveness of preparations was assessed according to several groups of indices: morphometric, biochemical and functional. First of all the clinical performance of intoxication was observed. The clinical performance in the group of rats that received CCl4 with no treatment was characterized by hypodynamia, dormancy, disheveled hair and untidy appearance of the animals. They gained weight less well than the other rats. In this group, by day 15 of the study 80% of animals were dead."}, "[2]": {"tested_on": "liver cirrhosis induced by carbon tetrachloride (CCl4)", "test": "Treatment of liver cirrhosis (CCl4) in rats by oral administration", "type": "in vivo", "parameters": "Relative liver mass: unit not given here", "procedure": "Treatment of liver cirrhosis by oral administration of the inventive substance. Liver cirrhosis was induced in rats by means of intragastric administration of 50% solution of carbon tetrachloride (CCl4) in olive oil in the amount of 1 ml/kg during 10 days. After 20 days the presence of liver cirrhosis was confirmed by morphological image of liver in all laboratory animals. Starting from that day, for 10 days the inventive agent was administered to the laboratory animals by way of treatment, once every 24 hours, in varying amounts in order to refine the optimal treatment procedure.\nThe effectiveness of the inventive preparation was evaluated in comparison with Essentiale by several groups of indices: morphometric, biochemical and functional. First of all the clinical performance of intoxication was observed. The clinical performance in the group of rats that received CCl4 with no treatment was characterized by hypodynamia, dormancy, disheveled hair and untidy appearance of the animals. They gained weight less well than the other rats. In this group by day 15 of the study 80% of the animals were dead, in the group that received Essentiale—60%, in the group that received the inventive agent—40%.\nQuantitative assessment of the preparation's effectiveness in treatment of toxic hepatitis was performed using a point rating system, taking into account the marker indices: the largest score for each index was assigned to the group with the more pronounced positive effect of the preparation."}, "[3]": {"conditions": "CCl4 intoxication, after 10 days i.v. treatment, inventive substance 25 mg/kg, Essentiale 1 ml/100 g, M ± m"}, "[4]": {"conditions": "point rating system, larger score = more pronounced positive effect, inventive substance 180 mg/kg, Essentiale 100 mg/kg"}, "[5]": {"conditions": "rats, CCl4 intoxication (cirrhosis), after 10 days oral treatment, inventive substance 90 mg/kg, Essentiale 100 mg/kg, M ± m"}, "[6]": {"conditions": "rats, CCl4 liver cirrhosis, oral treatment"}}, "data": [{"compound": "O=Nc1c(O)n(-c2ccc(Br)cc2)c(=O)[nH]c1=O", "note": "[The inventive substance, 1-(4-bromophenyl)-6-hydroxy-5-nitroso-1,2,3,4-tetrahydropyrimidine-2.4-dione]", "values": [{"measurement": "Body weight", "setting": "[1]; CCl4 intoxication, after 10 days i.v. treatment once every 24 h, inventive substance 25 mg/kg, Essentiale 1 ml/100 g, M ± m", "value": "174 ± 8", "unit": "g"}, {"measurement": "Hexenal sleep", "setting": "[1]; CCl4 intoxication, after 10 days i.v. treatment, hexenal 70 mg/kg, inventive substance 25 mg/kg, Essentiale 1 ml/100 g, M ± m", "value": "31.0 ± 2.0", "unit": "min"}, {"measurement": "ACP", "setting": "[1]; [3]", "value": "0.75 ± 0.10", "unit": "μkat/l"}, {"measurement": "Alanine aminotransferase, serum", "setting": "[1]; [3]", "value": "0.85 ± 0.08", "unit": "µmol/s/L"}, {"measurement": "Alkaline phosphatase, serum", "setting": "[1]; [3]", "value": "811 ± 26.3", "unit": "nmol/s/L"}, {"measurement": "Aspartate aminotransferase, serum", "setting": "[1]; [3]", "value": "0.32 ± 0.04", "unit": "µmol/s/L"}, {"measurement": "Ceruloplasmin, serum", "setting": "[1]; [3]", "value": "477 ± 44", "unit": "mg/L"}, {"measurement": "Cholesterol, serum", "setting": "[1]; [3]", "value": "1.70 ± 0.19", "unit": "mmol/L"}, {"measurement": "Concentration of bromsulphalein at 10th minute after administrating the serum, extinction,", "setting": "[1]; [3]", "value": "13.5 ± 1.6", "unit": "extinction"}, {"measurement": "Glycogen, liver", "setting": "[1]; [3]", "value": "2691 ± 191", "unit": "mg %"}, {"measurement": "LDH", "setting": "[1]; [3]", "value": "5.49 ± 0.45", "unit": "mmol/h/L"}, {"measurement": "Reduced glutathione, liver", "setting": "[1]; [3]", "value": "164 ± 10", "unit": "mg %"}, {"measurement": "Relative liver mass", "setting": "[1]; [3]", "value": "27.87 ± 1.03", "unit": "g/kg"}, {"measurement": "SH-groups, serum", "setting": "[1]; [3]", "value": "1554 ± 72", "unit": "mg %"}, {"measurement": "Thymol test", "setting": "[1]; [3]", "value": "1.18 ± 0.17", "unit": "turbidity units"}, {"measurement": "Total bilirubin, serum", "setting": "[1]; [3]", "value": "3.8 ± 0.5"}, {"measurement": "Total lipids, serum", "setting": "[1]; [3]", "value": "3.4 ± 0.09", "unit": "g/L"}, {"measurement": "Total protein, serum", "setting": "[1]; [3]", "value": "69 ± 6", "unit": "g/L"}, {"measurement": "microvesicular focal steatosis (liver histology, in words)", "setting": "[1]; CCl4 toxic hepatitis, after i.v. treatment", "value": "absence of microvesicular focal steatosis"}, {"measurement": "percentage of deaths in the groups by the end of the treatment", "setting": "[1]; CCl4 toxic hepatitis, day 20, 40% dead by start of treatment (day 10), inventive substance 25 mg/kg i.v., Essentiale 1 ml/100 g i.v.", "value": 40, "unit": "%"}, {"measurement": "manifestations of intoxication (clinical performance, in words)", "setting": "[1]; CCl4 toxic hepatitis, i.v. treatment", "value": "reduced or almost completely arrested the manifestations of intoxication"}, {"measurement": "Quantitative assessment of effectiveness, ALP score", "setting": "[2]; [4]", "value": 11, "unit": "points"}, {"measurement": "Quantitative assessment of effectiveness, ALT score", "setting": "[2]; [4]", "value": 7, "unit": "points"}, {"measurement": "Quantitative assessment of effectiveness, AST score", "setting": "[2]; [4]", "value": 7, "unit": "points"}, {"measurement": "Quantitative assessment of effectiveness, Hexenal sleep score", "setting": "[2]; [4]", "value": 10, "unit": "points"}, {"measurement": "Quantitative assessment of effectiveness, Weight coefficient score", "setting": "[2]; [4]", "value": 10, "unit": "points"}, {"measurement": "Body weight", "setting": "[2]; rats, CCl4 intoxication (cirrhosis), after 10 days oral treatment once every 24 h, inventive substance 90 mg/kg, Essentiale 100 mg/kg, M ± m", "value": "174 ± 7", "unit": "g"}, {"measurement": "Alanine aminotransferase, serum", "setting": "[2]; [5]", "value": "0.85 ± 0.08", "unit": "µmol/s/L"}, {"measurement": "Alkaline phosphatase, serum", "setting": "[2]; [5]", "value": "811 ± 26.3", "unit": "nmol/s/L"}, {"measurement": "Aspartate aminotransferase, serum", "setting": "[2]; [5]", "value": "0.32 ± 0.04", "unit": "µmol/s/L"}, {"measurement": "Hexenal sleep", "setting": "[2]; [5]", "value": "31.0 ± 2.0", "unit": "min"}, {"measurement": "Relative liver mass", "setting": "[2]; [5]", "value": "27.87 ± 1.03"}, {"measurement": "degenerative changes of the liver (histology, in words)", "setting": "[2]; rats, CCl4 liver cirrhosis, after oral treatment, majority of rats", "value": "no degenerative changes of the liver"}, {"measurement": "condition and function of liver (in words)", "setting": "[2]; [6]", "value": "virtually completely and reliably normalized the condition and function of liver"}, {"measurement": "manifestations of intoxication (clinical performance, in words)", "setting": "[2]; [6]", "value": "reduced or almost completely arrested the manifestations of intoxication"}, {"measurement": "animals dead by day 15 of the study", "setting": "[2]; rats, CCl4 liver cirrhosis, oral treatment, untreated CCl4 group 80%", "value": 40, "unit": "%"}, {"measurement": "Quantitative assessment of effectiveness, Total points", "setting": "[2]; sum of marker index scores, inventive substance 180 mg/kg, Essentiale 100 mg/kg", "value": 45, "unit": "points"}]}]}
